Reference: PubChem BioAssay AID179 (DTP/NCI, 2004)
Values joined by “and” are separate entries in the source; they are usually repeats but may differ in a detail not shown here. Equal entries are not always repeated. Active and inactive are the calls of the source.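 Rule for the calls: active = compounds giving half or more protection of infected cells from virus-caused growth loss, again on retest; inactive = the rest.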 Where a SMILES comes first, the peptide text is derived from it. [ ]: non-standard residue; d: D form. Abu = CC[CH](N)C(=O)O

Test system: CEM cells HIV-1 protection, formazan growth assay
Test: NCI AIDS Antiviral Assay
Conditions: for IC50: measured here: growth of uninfected CEM cells
How it was run: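 Soluble formazan readout of cell growth; CEM cells ± HIV-1; 5 drug concs. ≥50% protection → retest; ≥50% again = moderately active; reproducible 100% = confirmed active.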

| Structure (SMILES) | EC50 [µM] | IC50 | outcome |
| --- | --- | --- | --- |
| Cc1csc(/N=C\c2c(O)c3ccccc3oc2=O)n1 | > 200 | 36.3 µM | – |
| CC(C)(C)[Si](C)(C)OC1C(CC#N)C(CO)OC1n1ccc(=O)[nH]c1=O (stereo unspecified) | > 200 | > 200 µM | – |
| CNCCOC(c1ccccc1)c1ccccc1C (stereo unspecified) | > 200 | 93.3 µM and 25.1 µM | – |
| NC1=NCC(CN2CCOCC2)O1 (stereo unspecified) | > 200 | > 200 µM | – |
| NCCCN(CCCN)CCN(CCN(CCCN)CCCN)CCN(CCCN)CCCN | > 200 | 57.5 µM | – |
| CCCCCCCCCO/N=C\c1c2c(O)c3c(O)c(C)c4c(c3c1O)C(=O)C(C)(O/C=C\C(OC)C(C)C(OC(C)=O)C(C)C(O)C(C)C(O)C(C)/C=C\C=C(\C)C(=O)N2)O4 (stereo unspecified) | > 200 | 3.16 µM | – |
| COc1cc(CO)c(C2OC(CO)C(O)C2O)c(OC)c1 (stereo unspecified) | – | – | inactive |
| CCCCCCCCCCCC1CN=C(CCCCC2=NCC(CCCCCCCCCCC)N2)N1 (stereo unspecified) | > 7.08 | > 7.08 µM | – |
| COc1ccc(-c2ccc(CC(=O)O)cc2)cc1OC | > 36.3 | > 36.3 µM | – |
| CC1(C)O[C@]2(C)CC[C@@H]1[C@@H](O)[C@@H]2N1CCCCC1 | > 380 | > 380 µM | – |
| CSS(=O)(=O)C(c1ccccc1)c1ccccc1 | > 112 | 49 µM | – |
| CCCCCCCCCCCCCCCCOC1OC(CSSCC2OC(OCCCCCCCCCCCCCCCC)C(O)C(O)C2O)C(O)C(O)C1O (stereo unspecified) | 5.25 | 6.03 µM | – |
| CN(CCO)CCCC1COc2ccccc2O1 (stereo unspecified) | > 200 | > 200 µM | – |
| Nc1nc(Cl)cc(NCC2(CO)CCCCC2)n1 | > 200 | 105 µM | – |
| CCOC(=O)N/N=C(/N)Cc1ccc(Cl)cc1 | > 200 | 120 µM | – |
| Cn1ccc(C(=O)NCCCCCNC(=O)c2ccn(C)c(=O)c2O)c(O)c1=O | > 200 | > 200 µM | – |
| OC1(C2(O)c3ccccc3-c3ccccc32)c2ccccc2-c2ccccc21 | > 72.4 | 41.7 µM | – |
| C=C(C)CNC(=S)N(N)c1ccc2ccccc2c1 | > 200 | 58.9 µM | – |
| CC(C)[Si](Oc1cc2c3c(ccc2c(O)c1[C@@H](C)CO[Si](C)(C)C(C)(C)C)C(C)(C)CCC3)(C(C)C)C(C)C | > 200 | 40.7 µM | – |
| CCN(CC)C1=Nc2ccccc2-n2ccnc2C1 | – | – | inactive |
| O=C1c2nn(-c3ccccc3)nc2C(c2ccccc2)N1c1ccccc1 (stereo unspecified) | > 14.8 | > 14.8 µM | – |
| CN(C)CCC(=O)CCN(C)C | > 1020 | 186 µM | – |

| Structure (SMILES) | EC50 [µM] | IC50 | outcome |
| --- | --- | --- | --- |
| O=C(NNC(=S)Nc1ccccc1)c1cc(-c2ccccc2)nc2ccccc12 | > 200 | 21.9 µM | – |
| O=S1(=O)CSc2ccc3ccccc3c2-c2c1ccc1ccccc21 | > 27.5 | > 27.5 µM | – |
| CCCC(=O)NC(NC1CCCCC1)(C(=O)OCC)C(F)(F)F (stereo unspecified) | 191 | > 200 µM | – |
| CN(C)c1ccc(C=NCC2CCCN3CCCCC23)cc1 (stereo unspecified) | > 100 | > 100 µM | – |
| O=[N+]([O-])C(=C(c1ccccc1)c1ccccc1)[N+](=O)[O-] | – | – | inactive |
| O=[N+]([O-])C(=C1NCCN1)/C(Cl)=C(\Cl)Br | > 200 | 16.6 µM | – |
| COc1ccc2ccccc2c1-c1cccc2ccccc12 | > 200 | 32.4 µM | – |
| CNC(=O)c1ccc(C(=O)NCCCCCN(O)C(=O)CCC(=O)NCCCCCN(O)C(=O)CCC(=O)NCCCCCN(O)C(C)=O)c(O)c1O | > 100 | 69.2 µM | – |
| CN=C(/N=c1\ssc(=NC)n1C)N(C)C | > 70.8 | 50.1 µM | – |
| COc1ccccc1S(=O)Nc1ccccc1 (stereo unspecified) | > 200 | > 200 µM | – |
| COc1ccc(C(O)c2nccn2C)c(OC)c1 (stereo unspecified) | > 200 | > 200 µM | – |
| COC(=O)c1nn2c(=O)[nH]c3ccccc3c2c1C(=O)OC | > 562 | 331 µM | – |
| O=C1CC23CCCC2(C1)CC(=O)C3 (stereo unspecified) | > 126 | > 126 µM | – |
| COc1ccc2c(c1)CCc1c(-c3noc4c3CCc3cc(OC)ccc3-4)noc1-2 | > 234 | > 234 µM | – |
| COc1cc(C2c3cc4c(cc3OC(N3CCOCC3)C2C)OCO4)cc(OC)c1OC(C)=O (stereo unspecified) | > 200 | 3.31 µM | – |
| O=C(Sc1sc(=S)sc1SC(=O)c1ccccc1)c1ccccc1 | > 17.8 | > 17.8 µM | – |
| COC(=O)c1cc(C(=CCCCCO)c2cc(Cl)c(OC)c(C(=O)OC)c2)cc(Cl)c1OC | > 200 | 23.4 µM | – |
| O=C1/C(=C/c2ccccc2)N=C(c2ccccc2)N1n1c(-c2ccccc2)nc2ccccc2c1=O | > 200 | 75.9 µM | – |
| CC(C)(C)OC(=O)NCC(=O)NC1C/C(=N\O)c2sccc21 (stereo unspecified) | > 200 | > 200 µM | – |
| CCCCOc1cc(C[S+]2CCCC2)c(OC)cc1C[S+]1CCCC1 | > 145 | 14.8 µM | – |
| CN(C(=O)C12C3C4C5C3C1(C(=O)C13C6C7C8C6C1C8C73)C5C42)C(C)(C)C (stereo unspecified) | > 135 | > 135 µM | – |
| CC1=NOC(=O)/C1=C/c1ccc([N+](=O)[O-])cc1 | > 1070 | 933 µM | – |

| Structure (SMILES) | EC50 [µM] | IC50 | outcome |
| --- | --- | --- | --- |
| Cc1nn(-c2ccccc2)c2c1CC(=O)Nc1ccccc1-2 | > 2 | 0.112 µM | – |
| C=CC1(c2ccccc2Cl)N/C(=C/OCC)CO1 (stereo unspecified) | > 26.9 | > 26.9 µM | – |
| O/N=C/C1C(OCc2ccccc2)C(OCc2ccccc2)C(OCc2ccccc2)CN1Cc1ccccc1 (stereo unspecified) | – | – | inactive |
| CCOC(=O)/C(=C\c1ccoc1)P(=O)(OCC)OCC | > 832 | 30.9 µM | – |
| Cc1cccc2c1c(=O)c1c(O)c3c(cc1n2C)OC(C)(C)C=C3 | > 200 | 87.1 µM | – |
| COc1ccc(/C=N/Nc2nc3ccccc3c(=O)n2-c2ccccc2)c(OCc2ccccc2)c1 | > 200 | – | – |
| COc1ccc(/C=c2/sc3n(c2=O)NC2(CCC(C)CC2)NN=3)cc1 (stereo unspecified) | – | – | inactive |
| O=c1[nH][nH]c2c1SCc1ccccc1-2 | > 955 | 468 µM | – |
| S=C1NC2(CCCCC2)N2C(=S)NC3(CCCCC3)N12 | – | – | inactive |
| CC(O[Si](c1ccccc1)(c1ccccc1)C(C)(C)C)[C@H](NC(=O)OC(C)(C)C)C(=O)O[Si](c1ccccc1)(c1ccccc1)C(C)(C)C (stereo partly specified) | > 26.9 | 24 µM | – |
| COC(=O)CC1(CNC(=O)OCc2ccccc2)OCCO1 | > 200 | > 200 µM | – |
| CC(C)(C)O/N=C/c1cc(NC(=S)c2ccccc2)ccc1Cl | 0.135 | 10.7 µM | – |
| COc1c(C2(c3ccc(F)cc3)SCCCS2)c(=O)c1=O | > 200 | > 200 µM | – |
| CCC(N)C(=O)NC(C(=O)NC(CC(C)C)C(=O)NC(CC(N)=O)C(=O)NC(Cc1ccccc1)C(=O)O)C(C)O (stereo unspecified) (H-[Abu]TLNF-OH; configuration not given here) | – | – | inactive |
| CCOC(=O)CNC(=O)C(C)NC(=O)C(NC(=O)CC(c1ncc[nH]1)c1ncc[nH]1)C(C)CC (stereo unspecified) | > 100 | > 100 µM | – |
| CC(=O)NNc1nc(C)c(C(=O)/C=C/c2ccc(Cl)cc2)s1 | > 56.2 | > 56.2 µM | – |
| O=C(/C=C/c1ccc(O)c(O)c1)Oc1ccccc1 | > 200 | 9.33 µM | – |
| CC(=O)N(O)c1ccccc1-c1ccccc1 | > 200 | 102 µM | – |
| COc1cc(Br)c(CC2=NCCc3cc(OC)c(OC)cc32)cc1OC | – | – | inactive |
| N=C1/C(=C/c2ccccc2)C(=O)N=C2SC=NN12 | > 200 | > 200 µM | – |
| CC(=Nc1ccccc1C(=O)[O-])c1c([O-])ccc2c(C)cc(=O)oc12.[Cu+2].[OH3+] | > 1.32 | > 1.32 µM | – |
